Experimental data taken from ChEMBL document CHEMBL2176898, “3-Alkoxy-1,2-Dioxolanes: Synthesis and Evaluation as Potential Antimalarial Agents” (ACS Med Chem Lett, 2011).

Tested on: Plasmodium falciparum
Experiment: microbe, parasite or virus in culture
Settings: NF54
Description: Antimicrobial activity against Plasmodium falciparum NF54

Point of comparison: `COC1(Cc2ccccc2)CC(C)(C)OO1` (stereo unspecified), IC50 970 nM. Against it:
- CC1(OCC23CC4CC(CC(C4)C2)C3)CC2(CCCCC2)OO1 (stereo unspecified) — 28-fold lower, 35 nM
- COC1(C2CCCCC2)CC2(CCCCC2)OO1 (stereo unspecified) — 110-fold lower, 9.2 nM
- C[C@H]1[C@H](OC(=O)CCC(=O)O)O[C@@H]2O[C@@]3(C)CC[C@H]4[C@H](C)CC[C@@H]1[C@@]24OO3 [ARTESUNATE] — 390-fold lower, 2.5 nM
- CCCCC1(C)CC(C)(OCC23CC4CC(CC(C4)C2)C3)OO1 (mixture of isomers) — 6.9-fold lower, 140 nM
- CC1(C)CC(C)(OCC23CC4CC(CC(C4)C2)C3)OO1 (stereo unspecified) — 3.3-fold lower, 290 nM
- CCCCC1(C)CC(C)(OCCC)OO1 (mixture of isomers) — higher, > 4000 nM
- CCCCC1(C)CC(C)(OCCc2ccccc2)OO1 (mixture of isomers) — 13-fold lower, 76 nM
- COC1(Cc2ccccc2)CC2(CCCCC2)OO1 (stereo unspecified) — 2.9-fold lower, 340 nM
- CCCCOC1(C)CC(C)(C)OO1 (stereo unspecified) — higher, > 10000 nM
- CC1(OCCc2ccccc2)CC2(CCCCC2)OO1 (stereo unspecified) — 110-fold lower, 9 nM
